Reference: patent US20220305017A1, “COMPOSITIONS AND METHODS FOR THE TREATMENT OF ESTROGEN-DEPENDENT DISORDERS” (ObsEva S.A., priority 2019, published 2022)
Where “and” joins values, the source holds several entries; their conditions need not be identical. Equal entries are not always repeated.

Experiments:
[1] = test system: human female patients diagnosed as having adenomyosis; test: human clinical trial in adenomyosis (single-patient longitudinal case study and multi-patient analysis, n = 6); assay type: in vivo
Excerpt: This examples describes the results of a human clinical trial conducted to evaluate the ability of a GnRH antagonist, 3-[2-fluoro-5-(2,3-difluoro-6-methoxybenzyloxy)4-methoxyphenyl]-2,4-dioxo-1,2,3,4-tetrahydrothieno [3,4d]pyrimidine-5-carboxylic acid (represented by formula (VI)), or a pharmaceutically acceptable salt thereof, to treat adenomyosis, an estrogen-dependent disease, in human patients diagnosed as having this condition.
One aim of this study was to investigate the ability of the GnRH antagonist to maintain its therapeutic effects despite being administered to patients in a progressively lower dosage throughout the trial. To this end, the patients treated in this study was first administered the GnRH antagonist of formula (VI) in an amount of 200 mg/day during an initial 12-week period. The GnRH antagonist was then administered to the patients in a reduced amount of 100 mg/day during a subsequent 12-week period. The patients' responsiveness to the GnRH antagonist was monitored throughout the study.
In addition to assessing the effectiveness of the GnRH antagonist when administered at lower doses, another aim of this study was to evaluate the ability of the GnRH antagonist to sustain its therapeutic effects even after treatment was ceased altogether. Accordingly, after being periodically administered the GnRH antagonist of formula (VI) over the course of 24 weeks, first in an amount of 200 mg/day and then in an amount of 100 mg/day, treatment with the GnRH antagonist was halted entirely. The patients were then monitored during a post-treatment follow-up period to analyze the extent to which the therapeutic effects of the compound were sustained.
To test the effects of compound (VI), a total of n=6 human female patients diagnosed as having adenomyosis were administered compound (VI) in accordance with the dosing schedule described above. One of these patients in particular was closely monitored beginning well before their treatment with compound (VI) was initiated. The specific results of this patient's therapy are described in the section entitled “Single-Patient Longitudinal Case Study,” below. The cumulative set of results for all 6 patients is reported in the section entitled “Multi-Patient Analysis,” below.
As part of the clinical trial, a case study was conducted in which a single patient of reproductive age having clinically diagnosed adenomyosis was monitored during the course of treatment with compound (VI). The patient was nulliparous. Two years before the study began, the patient presented with heavy menstrual bleeding, pelvic pain, and dysmenorrhea. […] Their gynecologist prescribed ulipristal acetate (UPA), a selective progesterone receptor modulator (SPRM), to be administered in an amount of 5 mg/day over the course of a treatment period lasting three months.
The patient was then recommended for treatment with the GnRH antagonist represented by formula (VI) herein. Accordingly, the patient was orally administered compound (VI) in an amount of 200 mg/day for three months. Following this initial three-month period, the patient was orally administered compound (VI) in a reduced amount of 100 mg/day for a subsequent three-period. During both treatment periods, compound (VI) was administered to the patient in the form of a choline salt.
The patient was recommended for once-daily treatment with the GnRH antagonist of formula (VI). Accordingly, the patient was administered the GnRH antagonist of formula (VI) in an amount of 200 mg/day during a first treatment period, which lasted three months. At the conclusion of the first treatment period, the patient began a second treatment period in which they were administered compound (VI) in a reduced amount of 100 mg/day for three months. During both treatment periods, compound (VI) was administered to the patient in the form of a choline salt. […]

[2] = test system: human female patients diagnosed as having uterine fibroids; test: PRIMROSE 1 Phase 3 placebo-controlled trial in uterine fibroids; assay type: in vivo; details: for proportion of patients with menstrual blood loss ≤80 mL and ≥50% reduction from baseline: 24 weeks
Excerpt: This example describes the results of two Phase 3, double-blind, randomized, placebo-controlled, multicenter, human clinical trials undertaken to evaluate the efficacy of the GnRH antagonist represented by formula (VI) in a series of patients suffering from uterine fibroids. In these trials, referred to herein as “PRIMROSE 1” and “PRIMROSE 2,” human female patients diagnosed as having uterine fibroids were periodically administered compound (VI), 3-[2-fluoro-5-(2,3-difluoro-6-methoxybenzyloxy)4-methoxyphenyl]-2,4-dioxo-1,2,3,4-tetrahydrothieno [3,4d]pyrimidine-5-carboxylic acid, in the form of a choline salt over the course of a 12-month treatment period. Patients were administered compound (VI) once daily in an amount of either 100 mg or 200 mg. Patients receiving compound (VI) in a daily amount of 200 mg also received once daily hormonal add-back therapy (ABT), which consisted of […] of β17-estradiol (E2) per day and 0.5 mg of norethindrone acetate (NETA) per day.
The PRIMROSE 1 study, conducted in the United States, enrolled 526 women. The PRIMROSE 2 study, conducted in the United States and Europe, enrolled 535 women.
Patients were randomized to one of several cohorts: (i) placebo, (ii) 100 mg/day of compound (VI), or (iii) 200 mg/day of compound (VI). Patients receiving 200 mg/day of compound (VI) also received once-daily ABT containing 1.0 mg E2 and 0.5 mg NETA.
Patients were assessed for uterine fibroid symptomology at baseline, after 24 weeks of treatment, and again after 52 weeks of treatment. […] Patients were also assessed in order to determine the number of days of uterine bleeding during their last 28-day interval prior to week 24 of treatment with placebo or compound (VI).
Pain levels were measured using a Verbal Rating Score (VRS), as described herein. Patients were also assessed to determine the proportion that reported an improvement in quality of life using the Uterine Fibroids Symptoms and Health-Related Quality of Life questionnaire.
To evaluate the safety of compound (VI), patients' bone mineral density levels were measured at baseline and at various timepoints during the studies.

[3] = n = 6, after 12 weeks, 200 mg/day
[4] = single patient, after 24 weeks (200 mg/day 12 weeks, then 100 mg/day 12 weeks)

## COc1cc(F)c(-n2c(=O)[nH]c3csc(C(=O)O)c3c2=O)cc1OCc1c(OC)ccc(F)c1F [Compound (VI), 3-[2-fluoro-5-(2,3-difluoro-6-methoxybenzyloxy)4-methoxyphenyl]-2,4-dioxo-1,2,3,4-tetrahydrothieno [3,4d]pyrimidine-5-carboxylic acid]
[1]; all n = 6 cases, first 12 weeks, 200 mg/day
  serum E2: less than 20 pg/ml
[1]; all n = 6 patients, after 12 weeks, 200 mg/day
  anemia: resolved
[1]; all n = 6 patients, after 24 weeks
  adenomyotic lesions by MRI: remained smaller than those observed at baseline
[1]; each of n = 6 patients, after 24 weeks
  BMD by DEXA: either minimal change or no change from baseline
[1]; individual patients 1-3, 200 mg/day 12 weeks, then 100 mg/day 12 weeks, MRI
  Week 24 Uterine Volume: 440 cm^3 and 75 cm^3 and 266 cm^3
[1]; individual patients 1-6, 200 mg/day oral for 12 weeks (choline salt), MRI
  Week 12 Uterine Volume: 81 cm^3 and 70 cm^3 (2×) and 290 cm^3 and 84 cm^3 and 138 cm^3
[1]; n = 6, 200 mg/day treatment period, resolved after reduction to 100 mg/day
  side effects: hot flushes and vaginal dryness
[1]; [3]
  menstrual status: sustained amenorrhea
  pelvic pain: substantially reduced
[1]; n = 6, after 12 weeks, 200 mg/day, baseline mean 320 cm^3
  mean uterine volume by MRI: 122 cm^3
[1]; n = 6, weeks 13-24, 100 mg/day
  menstrual status: remained in amenorrhea
[1]; single patient, after 24 weeks
  all of the remaining EHP-30 scales: 0
  endometrial thickness by vaginal ultrasound: 3 mm
[1]; [4]
  hemoglobin (Hb) level: 13.6 g/dL
  uterine volume by MRI: 440 cm^3
[1]; single patient, after 24 weeks of treatment
  menstrual status: still in amenorrhea
[1]; single patient, after 24 weeks, baseline 58.3
  EHP-30 scale for emotional well-being: 4.2
[1]; single patient, after first 12 weeks, 200 mg/day, 16-17 weeks before treatment
  uterine volume on clinical evaluation, equivalent weeks of gestation: 10 weeks of gestation
[1]; single patient, after first 12 weeks, 200 mg/day, baseline approximately 875 cm^3
  uterine volume by MRI: 290 cm^3
[1]; single patient, after four weeks of 200 mg/day oral (choline salt), baseline 45 pg/mL
  concentration of E2: less than 20 pg/mL
[1]; single patient, after reduction to 100 mg/day
  side effects (hot flushes, vaginal dryness) after dose reduction: disappeared
[1]; single patient, end of first 12 weeks, 200 mg/day
  5-scaled EHP-30 score: 0
[1]; single patient, first treatment period, 200 mg/day
  side effects: a few instances of hot flushes and vaginal dryness
[1]; single patient, initial 12-week period, 200 mg once daily
  menstrual status: remained in amenorrhea
[1]; single patient, week 12, 200 mg/day, baseline 10 g/dL
  hemoglobin (Hb) level: 12.2 g/dL
[1]; single patient, week 16, reduced dose 100 mg/day (weeks 13-24)
  E2 level: 38 pg/mL
[1]; single patient, week 20, reduced dose 100 mg/day (weeks 13-24)
  E2 level: 26 pg/mL
[1]; single patient, week 24, reduced dose 100 mg/day (weeks 13-24)
  E2 level: 52 pg/mL
[1]; single patient, week 24 versus baseline
  bone mineral density T-scores and Z-scores (femoral neck, lumbar spine), DEXA: unchanged
[2]; 100 mg/day
  p value: Improvement in quality of life, Change from baseline in quality of life (QoL) symptom severity score (LS mean): p = 0.002
[2]; 200 mg/day + once-daily ABT
  p value: Improvement in quality of life, Change from baseline in quality of life (QoL) symptom severity score (LS mean): p < 0.001
[2]; 100 mg per day without ABT, p=0.003, placebo 35%
  proportion of patients with menstrual blood loss ≤80 mL and ≥50% reduction from baseline: 56.4%
[2]; 200 mg per day + ABT (1.0 mg E2 + 0.5 mg NETA), p<0.001, placebo 35%
  proportion of patients with menstrual blood loss ≤80 mL and ≥50% reduction from baseline: 75.5%
[2]; once-daily treatment, 24 and 52 weeks, FIG. 9
  bone mineral density, lumbar spine: does not induce a substantial decrease in bone mineral density
